Assay results taken from patent publication US20060281736A1, “Product comprising at least one phosphatase cdc25 inhibitor combined with at least one other anticancer agent” (priority 2003, published 2006).

Experiments:
[1] = Stability in the form of a powder; type: physicochemical; conditions: compound and its salts
[2] = system: HT-29 cell line (human colon cancer cells); assay: Test of cell proliferation of the HT-29 cells (WST1), products individually or in combination; type: cell-based; conditions: 120 hours
Protocol: A) Test of Cell Proliferation of the HT-29 Cells
The protocol for the test used to obtain the results shown is described below:
The HT-29 cell line (human colon cancer cells) were acquired from the American Tissue Culture Collection (Rockville, Md., USA).
The HT-29 cells (2000 cells/well) are cultured in 96-well plates. On day 0, these cells are seeded in 90 μl of Dulbecco's modified Eagle medium (Gibco-Brl, Cergy-Pontoise, France) completed with 10% foetal calf serum inactived by heating (Gibco-Brl, Cergy-Pontoise, France), 50000 units/l of penicillin and 50 mg/l streptomycin (Gibco-Brl, Cergy-Pontoise, France), and 2 mM of glutamine (Gibco-Brl, Cergy-Pontoise, France).
The cells were treated simultaneously with concentrations of two products individually or in combination on Day 1 and for 120 hours.
At the end of the of this period (D6), quantification of cell proliferation is evaluated by a colorimetric test based on the cleavage of the tetrazolium salt WST1 by mitochondrial dehydrogenases in living cells leading to the formation of formazan (Boehringer Mannheim, Meylan, France). These tests are carried out at least in duplicate with 4 determinations for each individual product and for each combination tested. This allows determination of the number of living cells at the end of each treatment.

[3] = system: DU145 (human prostate cancer cells); assay: Antiproliferative activity on DU145 cells (WST1); type: cell-based; conditions: DU-145, 96 hours treatment, read-out: IC50 on the cell proliferation of DU-145 lines
Protocol: (§1) ii) Characterization of the Antiproliferative Activity:
By way of example, the effect of a treatment on two human cell lines Mia-Paca2 and DU145 with the compounds of the examples described previously will be studied. The cell lines DU145 (human prostate cancer cells) and Mia-PaCa2 (human pancreas cancer cells) were acquired from the American Tissue Culture Collection (Rockville, Md., USA). The cells placed in 80 μl of Dulbecco's Modified Eagle's medium (Gibco-Brl, Cergy-Pontoise, France) completed with 10% foetal calf serum inactivated by heating (Gibco-Brl, Cergy-Pontoise, France), 50,000 units/l of penicillin and 50 mg/l of streptomycin (Gibco-Brl, Cergy-Pontoise, France), and 2 mM of glutamine (Gibco-Brl, Cergy-Pontoise, France) were seeded on a 96-well plate on day 0. The cells were treated on day 1 for 96 hours with increasing concentrations of each of the compounds to be tested up to 10 μM. At the end of this period, quantification of cell proliferation is evaluated by a colorimetric test based on the cleavage of the tetrazolium salt WST1 by the mitochondrial dehydrogenases in viable cells leading to the formation of formazan (Boehringer Mannheim, Meylan, France). These tests are carried out in duplicate with 8 determinations per concentration tested. […]

[4] = system: Mia-PaCa2 (human pancreas cancer cells); assay: Antiproliferative activity on Mia-Paca2 cells (WST1); type: cell-based; conditions: MIA PaCa-2, 96 hours treatment, read-out: IC50 on the cell proliferation of Mia-Paca2 lines
Protocol: as §1
By way of example, the effect of a treatment on two human cell lines Mia-Paca2 and DU145 with the compounds of the examples described previously will be studied. The cell lines DU145 (human prostate cancer cells) and Mia-PaCa2 (human pancreas cancer cells) were acquired from the American Tissue Culture Collection (Rockville, Md., USA). The cells placed in 80 μl of Dulbecco's Modified Eagle's medium (Gibco-Brl, Cergy-Pontoise, France) completed with 10% foetal calf serum inactivated by heating (Gibco-Brl, Cergy-Pontoise, France), 50,000 units/l of penicillin and 50 mg/l of streptomycin (Gibco-Brl, Cergy-Pontoise, France), and 2 mM of glutamine (Gibco-Brl, Cergy-Pontoise, France) were seeded on a 96-well plate on day 0. The cells were treated on day 1 for 96 hours with increasing concentrations of each of the compounds to be tested up to 10 μM. At the end of this period, quantification of cell proliferation is evaluated by a colorimetric test based on the cleavage of the tetrazolium salt WST1 by the mitochondrial dehydrogenases in viable cells leading to the formation of formazan (Boehringer Mannheim, Meylan, France). These tests are carried out in duplicate with 8 determinations per concentration tested. For each compound to be tested, the values included in the linear part of the sigmoid were retained for a linear regression analysis and used to estimate the inhibitory concentration IC50. The products are solubilized in dimethylsulphoxide (DMSO) at 10^−2 M and finally used in culture with 0.1% DMSO.

## N[C@@H](CSSC[C@H](N)C(=O)N1CCn2cc(-c3ccccc3)nc2[C@@H]1CC1CCCCC1)C(=O)N1CCn2cc(-c3ccccc3)nc2[C@@H]1CC1CCCCC1 [(1R)-1-[({(2R)-2-amino-3-[(8S)-8-(cyclohexylmethyl)-2-phenyl-5,6-dihydroimidazo[1,2-a]pyrazin-7(8H)-yl]-3-oxopropyl}dithio)methyl]-2-[(8)-8-(cyclohexylmethyl)-2-phenyl-5,6-dihydroimidazo[1,2-a]pyrazin-7(8H)-yl]-2-oxoethylamine]
[1]
  stability in the form of a powder: particularly stable
In vivo toxicity
  in vivo toxicity data: excellent

## CN(Cc1cnc2nc(N)nc(N)c2n1)c1ccc(C(=O)N[C@@H](CCC(=O)O)C(=O)O)cc1 [Compound B5, methotrexate]
[2]; Combination 5: Compound B5 (5 × 10^−8 M) individually
  % of surviving cells: 83%

## CCc1c2c(nc3ccc(O)cc13)-c1cc3c(c(=O)n1C2)COC(=O)[C@]3(O)CC [Compound B11, SN-38]
[2]; Combination 11: Compound B11 (5 × 10^−9 M) individually
  % of surviving cells: 98%
[2]; Combination 24: Compound B11 (10^−8 M) individually
  % of surviving cells: 73%
[2]; Combination 30: Compound B11 (10^−8 M) individually
  % of surviving cells: 67%

## CC[C@@]1(O)CC(=O)OCc2c1cc1n(c2=O)Cc2c-1nc1cc(Cl)c(C)cc1c2CN1CCC(C)CC1.Cl [Compound B13, (+)-9-chloro-5-ethyl-5-hydroxy-10-methyl-12-(4-methylpiperidinomethyl)-4,5,13,15-tetrahydro-1H,3H-oxepino[3′,4′:6,7]indolizino[1,2-c]quinoline-3,15-dione hydrochloride]
[2]; Combination 13: Compound B13 (10^−9 M) individually
  % of surviving cells: 91%

## CCCNC1=CC(=O)c2sc(C)nc2C1=O [Example 11, 2-methyl-5-(propylamino)-1,3-benzothiazole-4,7-dione]
[3]
  IC50: ≤ 10 µM
[4]
  IC50: ≤ 10 µM

## CCc1nc2c(o1)C(=O)C(C)=C(NCCN(C)C)C2=O [Example 55, 5-{[2-(dimethylamino)ethyl]amino}-2-ethyl-6-methyl-1,3-benzoxazole-4,7-dione]
other
  melting point: 135 °C
[4]
  IC50: ≤ 10 µM
